From ChEMBL document CHEMBL4376858, “Structure-Activity Relationships of Novel Thiazole-Based Modafinil Analogues Acting at Monoamine Transporters” (J Med Chem, 2020)
Calls of active or inactive are those of the source.

Tests used:
[1] = Plasma concentration in Sprague-Dawley rat at 10 mg/kg, ip compound dissolved in DMSO/Tween 80/Saline measured after 1 hr by HPLC-MS analysis; format: ADME, organism-based
[2] = Half life in Sprague-Dawley rat at 10 mg/kg, ip compound dissolved in DMSO/Tween 80/Saline by HPLC-MS analysis; format: ADME, organism-based; conditions: in vivo
[3] = biological target: T1, Sodium-dependent noradrenaline transporter (Homo sapiens, UniProt P23975); assay: Inhibition of wild type human NET expressed in HEK293 cells assessed as inhibition of [3H]-MPP+ reuptake preincubated for 5 mins followed by [3H]MPP+ addition and measured after 3 mins by liquid scintillation counting analysis; format: cell-based
T1 sequence (P23975 whole entry): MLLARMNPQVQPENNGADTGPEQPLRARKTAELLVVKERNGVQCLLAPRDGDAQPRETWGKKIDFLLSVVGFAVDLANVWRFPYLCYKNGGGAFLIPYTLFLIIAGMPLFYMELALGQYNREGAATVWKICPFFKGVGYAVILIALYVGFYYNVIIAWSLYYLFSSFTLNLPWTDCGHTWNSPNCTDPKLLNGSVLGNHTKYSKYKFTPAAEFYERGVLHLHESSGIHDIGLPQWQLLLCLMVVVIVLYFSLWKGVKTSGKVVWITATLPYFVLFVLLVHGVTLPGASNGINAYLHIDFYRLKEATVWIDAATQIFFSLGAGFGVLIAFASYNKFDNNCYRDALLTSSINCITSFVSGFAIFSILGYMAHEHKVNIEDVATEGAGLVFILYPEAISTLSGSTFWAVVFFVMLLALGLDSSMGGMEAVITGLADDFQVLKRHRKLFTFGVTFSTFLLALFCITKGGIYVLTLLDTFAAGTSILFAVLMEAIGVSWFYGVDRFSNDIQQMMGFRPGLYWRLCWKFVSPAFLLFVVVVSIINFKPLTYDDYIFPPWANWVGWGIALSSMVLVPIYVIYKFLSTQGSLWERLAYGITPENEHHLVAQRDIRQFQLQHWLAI

[4] = AUC(0 to infinity) in Sprague-Dawley rat at 10 mg/kg, ip compound dissolved in DMSO/Tween 80/Saline by HPLC-MS analysis; format: ADME, organism-based; design: dose 10 mg/kg, time infinity, route intraperitoneal; conditions: in vivo
[5] = biological target: T1, Sodium-dependent noradrenaline transporter; assay: Inhibition of wild type human NET expressed in HEK293 cells assessed as inhibition of [3H]-MPP+ reuptake preincubated for 8 mins followed by [3H]MPP+ addition and measured after 3 mins by liquid scintillation counting analysis; format: cell-based
[6] = biological target: T2, Sodium-dependent dopamine transporter (Homo sapiens, UniProt Q01959); assay: Inhibition of wild type human dopamine transporter expressed in HEK293 cells assessed as inhibition of [3H]dopamine reuptake preincubated for 5 mins followed by [3H]dopamine addition and measured after 1 min by liquid scintillation analysis; format: cell-based; conditions: read-out: IC50
T2 sequence (Q01959 whole entry): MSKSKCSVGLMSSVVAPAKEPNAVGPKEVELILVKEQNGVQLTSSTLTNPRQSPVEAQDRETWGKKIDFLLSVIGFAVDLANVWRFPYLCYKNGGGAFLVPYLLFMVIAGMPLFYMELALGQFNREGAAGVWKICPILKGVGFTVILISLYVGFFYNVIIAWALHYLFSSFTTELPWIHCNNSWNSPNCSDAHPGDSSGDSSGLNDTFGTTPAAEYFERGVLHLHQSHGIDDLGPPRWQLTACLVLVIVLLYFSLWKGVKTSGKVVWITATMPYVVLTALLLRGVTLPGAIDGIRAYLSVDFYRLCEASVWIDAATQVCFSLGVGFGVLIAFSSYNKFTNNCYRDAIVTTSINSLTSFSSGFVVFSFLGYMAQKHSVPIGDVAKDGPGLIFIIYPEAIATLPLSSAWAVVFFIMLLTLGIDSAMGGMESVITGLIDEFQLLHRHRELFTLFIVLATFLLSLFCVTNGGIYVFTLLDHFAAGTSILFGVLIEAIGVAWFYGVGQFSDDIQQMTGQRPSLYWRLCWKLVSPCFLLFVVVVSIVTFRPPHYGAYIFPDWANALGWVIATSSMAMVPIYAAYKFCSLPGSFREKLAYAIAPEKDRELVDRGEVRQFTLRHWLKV

[7] = biological target: Sodium-dependent serotonin transporter (Homo sapiens, UniProt P31645); format: cell-based, HEK293
Chain of Sodium-dependent serotonin transporter (P31645 whole entry): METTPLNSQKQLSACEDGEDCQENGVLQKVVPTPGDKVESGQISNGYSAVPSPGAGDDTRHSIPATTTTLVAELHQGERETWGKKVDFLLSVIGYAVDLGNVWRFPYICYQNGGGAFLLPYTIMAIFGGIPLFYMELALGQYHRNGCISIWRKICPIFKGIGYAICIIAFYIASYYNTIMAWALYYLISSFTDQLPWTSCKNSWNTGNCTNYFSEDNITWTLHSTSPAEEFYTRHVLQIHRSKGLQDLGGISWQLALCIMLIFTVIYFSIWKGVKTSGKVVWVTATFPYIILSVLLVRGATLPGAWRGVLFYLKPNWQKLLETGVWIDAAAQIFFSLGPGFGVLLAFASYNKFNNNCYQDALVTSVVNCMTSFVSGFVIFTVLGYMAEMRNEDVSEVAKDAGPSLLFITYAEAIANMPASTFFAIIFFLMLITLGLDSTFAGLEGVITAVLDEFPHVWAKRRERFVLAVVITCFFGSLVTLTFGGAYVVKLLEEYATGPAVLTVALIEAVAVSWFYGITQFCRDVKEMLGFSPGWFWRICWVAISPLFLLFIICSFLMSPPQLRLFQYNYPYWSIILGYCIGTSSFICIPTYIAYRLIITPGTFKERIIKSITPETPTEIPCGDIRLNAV
Description: Inhibition of wild type human SERT expressed in HEK293 cells assessed as inhibition of [3H]-5HT reuptake preincubated for 5 mins followed by [3H]5HT addition and measured after 1 min by liquid scintillation counting analysis

[8] = Cardiotoxicity in human Cor.4U hiPSC-CM cells assessed as effect on action potential shape at 10 uM measured after 30 mins by FluoVolt dye based fluorescence assay; format: toxicity; conditions: 0.5 h
[9] = Cardiotoxicity in human Cor.4U hiPSC-CM cells assessed as early after depolarization at 10 uM measured after 30 mins by FluoVolt dye based fluorescence assay; format: toxicity; conditions: 0.5 h
[10] = Cardiotoxicity in human Cor.4U hiPSC-CM cells assessed as effect on action potential duration at 10 uM measured after 30 mins by FluoVolt dye based fluorescence assay; format: toxicity; conditions: 0.5 h
[11] = Neurotoxicity in rat cortical neuron assessed as inhibition of neurite total length per neuron incubated for 72 hrs by Hoechst 33342 staining based ArrayScan analysis; format: toxicity, cell-based, Cortical neurone; conditions: rat cortical neurons
[12] = Neurotoxicity in rat cortical neuron assessed as inhibition of neurite outgrowth by measuring mean neurite average length incubated for 72 hrs by Hoechst 33342 staining based ArrayScan analysis; format: toxicity, cell-based, Cortical neurone; conditions: rat cortical neurons
[13] = Neurotoxicity in rat cortical neuron assessed as inhibition of valid neuron count incubated for 72 hrs by Hoechst 33342 staining based ArrayScan analysis; format: toxicity, cell-based, Cortical neurone; conditions: rat cortical neurons
[14] = test system: Cortical neurone; assay: Cytotoxicity in rat cortical neuron assessed as inhibition of cell viability incubated for 72 hrs by Hoechst 33342 staining based ArrayScan analysis
[15] = biological target: T2, Sodium-dependent dopamine transporter; assay: Inhibition of human DAT expressed in HEK293 cells preloaded with [3H]-MPP+ assessed as reduction in D-amphetamine-induced tritium efflux at 10 uM treated with compound prior to amphetamine challenge measured every 4 mins by liquid scintillation counting analysis; format: cell-based
[16] = Drug level in Sprague-Dawley rat brain at 7.5 mg/kg, ip compound dissolved in 40% Kolliphor-EL in water measured after 1 hr by LC-MS/MS analysis; format: ADME, organism-based; conditions: read-out: Ct
[17] = Ratio of IC50 for neurotoxicity against rat cortical neuron assessed as inhibition of valid neuron count by ArrayScan analysis to IC50 for wild type human dopamine transporter expressed in HEK293 cells
[18] = Plasma concentration in Sprague-Dawley rat at 7.5 mg/kg, ip compound dissolved in 40% Kolliphor-EL in water measured after 3 hrs by LC-MS/MS analysis; format: ADME, organism-based
[19] = test system: Rattus norvegicus; assay: Increase in extracellular dopamine level in Sprague-Dawley rat nucleus accumbens in brain at 1 mg/kg, ip measured after 50 mins by RP-HPLC analysis based microdialysis method; format: functional, organism-based
[20] = Drug level in Sprague-Dawley rat brain at 7.5 mg/kg, ip compound dissolved in 40% Kolliphor-EL in water measured after 3 hrs by LC-MS/MS analysis; format: ADME, organism-based; conditions: read-out: Ct
[21] = Plasma concentration in Sprague-Dawley rat at 7.5 mg/kg, ip compound dissolved in 40% Kolliphor-EL in water measured after 10 hrs by LC-MS/MS analysis; format: ADME, organism-based
[22] = test system: Rattus norvegicus; assay: Increase in extracellular dopamine level in Sprague-Dawley rat nucleus accumbens in brain at 10 mg/kg, ip measured after 50 mins by RP-HPLC analysis based microdialysis method relative to control; format: functional
[23] = biological target: T2, Sodium-dependent dopamine transporter; assay: Potency index, ratio of modafinil IC50 to compound IC50 for wild type human dopamine transporter expressed in HEK293 cells assessed as inhibition of [3H]dopamine reuptake preincubated for 5 mins followed by [3H]dopamine addition and measured after 1 min by liquid scintillation analysis; format: cell-based
[24] = Ratio of IC50 for neurotoxicity against rat cortical neuron assessed as inhibition of neurite total length per neuron by ArrayScan analysis to IC50 for wild type human dopamine transporter expressed in HEK293 cells
[25] = Ratio of IC50 for neurotoxicity against rat cortical neuron assessed as inhibition of mean neurite average length by ArrayScan analysis to IC50 for wild type human dopamine transporter expressed in HEK293 cells
[26] = biological target: T2, Sodium-dependent dopamine transporter; assay: Inhibition of human DAT expressed in HEK293 cells preloaded with [3H]-MPP+ assessed as decrease in tritium efflux at 10 uM measured every 4 mins by liquid scintillation counting analysis; format: cell-based
[27] = Drug level in Sprague-Dawley rat brain at 7.5 mg/kg, ip compound dissolved in 40% Kolliphor-EL in water measured after 10 hrs by LC-MS/MS analysis; format: ADME, organism-based; conditions: in vivo, BLD = below limit of detection
[28] = Plasma concentration in Sprague-Dawley rat at 7.5 mg/kg, ip compound dissolved in 40% Kolliphor-EL in water measured after 7 hrs by LC-MS/MS analysis; format: ADME, organism-based
[29] = AUC(0 to infinity) in Sprague-Dawley rat at 7.5 mg/kg, ip compound dissolved in 40% Kolliphor-EL in water by LC-MS/MS analysis; format: ADME, organism-based; design: dose 7.5 mg/kg, time infinity, route intraperitoneal; conditions: in vivo
[30] = Half life in Sprague-Dawley rat at 7.5 mg/kg, ip compound dissolved in 40% Kolliphor-EL in water by LC-MS/MS analysis; format: ADME, organism-based; conditions: in vivo
[31] = Plasma concentration in Sprague-Dawley rat at 7.5 mg/kg, ip compound dissolved in 40% Kolliphor-EL in water measured after 1 hr by LC-MS/MS analysis; format: ADME, organism-based
[32] = Drug level in Sprague-Dawley rat brain at 7.5 mg/kg, ip compound dissolved in 40% Kolliphor-EL in water measured after 7 hrs by LC-MS/MS analysis; format: ADME, organism-based; conditions: read-out: Ct
[33] = biological target: T2, Sodium-dependent dopamine transporter; assay: Potency index, ratio of (R)-modafinil IC50 to compound IC50 for wild type human dopamine transporter expressed in HEK293 cells assessed as inhibition of [3H]dopamine reuptake preincubated for 5 mins followed by [3H]dopamine addition and measured after 1 min by liquid scintillation analysis; format: cell-based

NC(=O)C[S@@+]([O-])C(c1ccccc1)c1ccccc1 [ARMODAFINIL]
concentration at 1 h [1]: 3900 ng/mL
half-life [2]: 24 min
IC50 ([3]; read-out: IC50): 170 µM
AUC(0-inf) [4]: 1.18 µM·h

[O-][S+](Cc1nccs1)C(c1ccccc1)c1ccccc1 (stereo not drawn)
IC50 [5]: 420 µM
IC50 [6]: 14.7 µM
IC50 ([7]; hek293): Not Active

[O-][S@+](Cc1cscn1)[C@@H](c1ccccc1)c1ccc(Br)cc1
IC50 ([3]; hek293): Not Active
Activity [8]: Non-Toxic
IC50 [6]: 63.7 µM
Activity [9]: Non-Toxic
IC50 ([7]; hek293): Not Active
Activity [10]: Non-Toxic

[O-][S@@+](Cc1cscn1)[C@H](c1ccccc1)c1ccc(Br)cc1
IC50 ([3]; hek293): Not Active
Activity [8]: Non-Toxic
IC50 [6]: 2.99 µM
Activity [9]: Non-Toxic
IC50 ([7]; hek293): Not Active
Activity [10]: Non-Toxic

COC(=O)Nc1nc2ccc(C(=O)c3cccs3)cc2[nH]1 [NOCODAZOLE]
IC50 at 72 h [11]: 0.0997 µM
IC50 at 72 h [12]: 0.097 µM
IC50 at 72 h [13]: 2.22 µM
Activity [14]: Toxic

[O-][S@@+](Cc1cscn1)[C@@H](c1ccccc1)c1ccc(Br)cc1
inhibition [15]: Active
concentration at 1 h [16]: 803 nM
Ratio IC50 [17]: >100
concentration at 3 h [18]: 1210 nM
Activity [19]: inactive
concentration at 3 h [20]: 409 nM
concentration at 10 h [21]: 23.8 nM
Activity [22]: 20%
Ratio IC50 [23]: 20
IC50 at 72 h [11]: > 100 µM
Ratio IC50 [24]: >100
IC50 ([3]; read-out: IC50): 73.3 µM
Ratio IC50 [25]: >100
Activity [8]: Non-Toxic
IC50 [6]: 0.65 µM
inhibition [26]: Active
Activity [9]: Non-Toxic
Ct [27]: Bld
IC50 at 72 h [12]: > 100 µM
concentration at 7 h [28]: 89.6 nM
AUC(0-inf) [29]: 5.84 µM·h
half-life [30]: 96 min
IC50 at 72 h [13]: > 100 µM
concentration at 1 h [31]: 2200 nM
IC50 ([7]; hek293): Not Active
Activity [10]: Non-Toxic
concentration at 7 h [32]: 44.3 nM
Ratio IC50 [33]: 10

[O-][S+](Cc1cscn1)C(c1ccc(F)cc1)c1ccc(F)cc1 (stereo not drawn)
IC50 ([3]; hek293): Not Active
IC50 [6]: 6.76 µM
IC50 ([7]; hek293): Not Active

[O-][S+](Cc1cncs1)C(c1ccccc1)c1ccccc1 (stereo not drawn)
half-life [2]: 54 min
IC50 [6]: 4.61 µM
AUC(0-inf) [4]: 13.5 µM·h

[O-][S@@+](Cc1cncs1)[C@H](c1ccccc1)c1ccc(Cl)cc1
IC50 ([3]; read-out: IC50): 38.6 µM
IC50 [6]: 3.6 µM
IC50 ([7]; hek293): Not Active

[O-][S+](Cc1cncs1)C(c1ccc(F)cc1)c1ccc(F)cc1 (racemic)
IC50 ([3]; read-out: IC50): 121 µM
IC50 [6]: 6.21 µM
IC50 ([7]; hek293): Not Active

Cc1ccc(C(c2ccc(C)cc2)[S+]([O-])Cc2cncs2)cc1 (stereo in doubt; 34a)
IC50 ([3]; hek293): Not Active
IC50 [6]: 6.8 µM
IC50 ([7]; read-out: IC50): 264 µM

Cc1ccc(C(c2ccc(C)cc2)[S+]([O-])Cc2nccs2)cc1 (stereo not drawn)
IC50 ([3]; hek293): Not Active
IC50 [6]: 29.4 µM
IC50 ([7]; hek293): Not Active

[O-][S+](Cc1cnc(Cl)s1)C(c1ccccc1)c1ccccc1 (stereo not drawn)
IC50 ([3]; read-out: IC50): 108 µM
IC50 [6]: 24.3 µM
IC50 ([7]; hek293): Not Active

[O-][S+](Cc1csc(C2CC2)n1)C(c1ccccc1)c1ccccc1 (stereo not drawn)
IC50 ([3]; read-out: IC50): 687 µM
IC50 [6]: 4.1 µM
IC50 ([7]; read-out: IC50): 436 µM

Cc1nc(C[S+]([O-])C(c2ccccc2)c2ccccc2)cs1 (stereo not drawn)
IC50 [5]: 174 µM
IC50 [6]: 3.25 µM
IC50 ([7]; hek293): Not Active

[O-][S@+](Cc1cscn1)[C@H](c1ccccc1)c1ccc(Br)cc1
IC50 ([3]; read-out: IC50): 52.6 µM
Activity [8]: Non-Toxic
IC50 [6]: 1.09 µM
Activity [9]: Non-Toxic
IC50 ([7]; read-out: IC50): 58.6 µM
Activity [10]: Non-Toxic

[O-][S@+](Cc1cncs1)[C@@H](c1ccccc1)c1ccc(Br)cc1
IC50 ([3]; read-out: IC50): 365 µM
IC50 [6]: 22.4 µM
IC50 ([7]; hek293): Not Active

[O-][S+](Cc1csc(Cl)n1)C(c1ccccc1)c1ccccc1 (racemic)
IC50 ([3]; hek293): Not Active
IC50 [6]: 3.02 µM
IC50 ([7]; hek293): Not Active

[O-][S+](Cc1cscn1)C(c1ccccc1)c1ccccc1 (racemic)
IC50 ([3]; hek293): Not Active
IC50 [6]: 6.66 µM
IC50 ([7]; hek293): Not Active

CC(C)c1nc(C[S+]([O-])C(c2ccccc2)c2ccccc2)cs1 (stereo not drawn)
IC50 ([3]; hek293): Not Active
IC50 [6]: 24.3 µM
IC50 ([7]; hek293): Not Active

[O-][S@+](Cc1cncs1)[C@H](c1ccccc1)c1ccc(Cl)cc1
IC50 ([3]; read-out: IC50): 36.5 µM
IC50 [6]: 7.4 µM
IC50 ([7]; read-out: IC50): 140 µM

CN(C)CCCN1c2ccccc2Sc2ccc(Cl)cc21 [CHLORPROMAZINE]
IC50 at 72 h [11]: 13.8 µM
IC50 at 72 h [12]: 9.02 µM
IC50 at 72 h [13]: 7.99 µM
Activity [14]: Non-Toxic
